Target: SIK2 (Homo sapiens, UniProt Q9H0K1)
Test: SIK2 Enzymatic Assay High Version 2 (High ATP)
Format: biochemical
Details: not given
Summary of the method: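 At room temperature, enzyme (6 nM, 2× final) was preincubated with compound for 30 min, then 6 mM ATP and 400 μM HDAC5tide (both 2× final) were added for 2 h. ADP formed was measured by ADP-Glo Max (2 h reagent, 1 h detection) using luminescence.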

Sequence of SIK2 (Q9H0K1 whole entry, species assumed): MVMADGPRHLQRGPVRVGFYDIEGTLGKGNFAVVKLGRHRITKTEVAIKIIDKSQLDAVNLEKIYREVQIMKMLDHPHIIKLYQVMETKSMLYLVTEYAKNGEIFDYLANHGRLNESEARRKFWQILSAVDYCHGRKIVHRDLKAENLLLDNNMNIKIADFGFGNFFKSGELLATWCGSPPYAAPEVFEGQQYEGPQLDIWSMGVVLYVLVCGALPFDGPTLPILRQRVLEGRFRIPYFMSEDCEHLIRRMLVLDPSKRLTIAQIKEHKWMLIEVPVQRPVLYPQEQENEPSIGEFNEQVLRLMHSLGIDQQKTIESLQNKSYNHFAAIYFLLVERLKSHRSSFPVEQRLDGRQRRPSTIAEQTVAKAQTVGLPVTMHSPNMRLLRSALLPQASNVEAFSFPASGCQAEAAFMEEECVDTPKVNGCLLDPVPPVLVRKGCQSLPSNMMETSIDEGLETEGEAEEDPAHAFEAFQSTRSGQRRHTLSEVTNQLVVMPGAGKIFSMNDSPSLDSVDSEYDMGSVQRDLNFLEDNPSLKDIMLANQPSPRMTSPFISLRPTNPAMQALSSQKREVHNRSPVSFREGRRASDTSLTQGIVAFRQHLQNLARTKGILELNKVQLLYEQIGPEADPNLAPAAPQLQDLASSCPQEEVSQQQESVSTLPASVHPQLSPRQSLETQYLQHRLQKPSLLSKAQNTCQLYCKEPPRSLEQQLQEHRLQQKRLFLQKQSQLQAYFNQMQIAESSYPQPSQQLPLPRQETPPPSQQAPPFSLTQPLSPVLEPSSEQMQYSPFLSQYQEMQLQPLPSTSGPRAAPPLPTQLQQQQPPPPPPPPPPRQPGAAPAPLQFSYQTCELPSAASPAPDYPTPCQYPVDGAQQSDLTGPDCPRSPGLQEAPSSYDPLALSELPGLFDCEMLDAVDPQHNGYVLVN

First: Cc1cc(-c2ccn3nc(NC(=O)C4CC4)cc3c2)c(O[C@H]2C[C@H]3COC[C@@H](C2)N3C)cn1 [Example 460, N-[5-[2-methyl-5-[[(1S,5R)-9-methyl-3-oxa-9-azabicyclo[3.3.1]nonan-7-yl]oxy]-4-pyridyl]pyrazolo[1,5-a]pyridin-2-yl]cyclopropanecarboxamide]
Second: Cc1cc(-c2ccn3nc(Nc4cnn(C(F)F)c4)cc3c2)c(O[C@H]2C[C@H]3COC[C@@H](C2)N3C)cn1 [Example 116, N-(1-(difluoromethyl)-1H-pyrazol-4-yl)-5-(2-methyl-5-(((1R,5S,7s)-9-methyl-3-oxa-9-azabicyclo[3.3.1]nonan-7-yl)oxy)pyridin-4-yl)pyrazolo[1,5-a]pyridin-2-amine]
The IC50 of the first is higher: 0.0413 µM for the first, less than 0.000847 µM for the second. The second is the more potent here.

Going from `Cc1cc(-c2cn3cc(NC(=O)C4CC4)nc3cn2)c(O[C@H]2C[C@H]3COC[C@@H](C2)N3)cn1` [Example 505, N-[6-[2-methyl-5-[[(1S,5R)-3-oxa-9-azabicyclo[3.3.1]nonan-7-yl]oxy]-4-pyridyl]imidazo[1,2-a]pyrazin-2-yl]cyclopropanecarboxamide] to `Cc1cc(-c2cn3cc(Nc4cnn(C)c4)nc3cn2)c(O[C@H]2C[C@H]3COC[C@@H](C2)N3)cn1` [Example 322, 6-[2-methyl-5-[[(1S,5R)-3-oxa-9-azabicyclo[3.3.1]nonan-7-yl]oxy]-4-pyridyl]-N-(1-methylpyrazol-4-yl)imidazo[1,2-a]pyrazin-2-amine], the IC50 falls from 0.012 µM to 0.0015 µM (8-fold).

First: Cc1cc(-c2ccn3nc(Nc4cnn(C)c4)cc3c2)c(O[C@H]2C[C@H]3COC[C@@H](C2)N3)cn1 [Example 123, 7-endo-5-[2-methyl-5-[[(1S,5R)-3-oxa-9-azabicyclo[3.3.1]nonan-7-yl]oxy]-4-pyridyl]-N-(1-methylpyrazol-4-yl)pyrazolo[1,5-a]pyridin-2-amine]
Second: Cc1cc(-c2ccn3nc(Nc4cccnn4)cc3c2)c(O[C@H]2C[C@H]3CC[C@@H](C2)N3C)cn1 [Example 514, 5-[2-methyl-5-[[(1S,5R)-8-methyl-8-azabicyclo[3.2.1]octan-3-yl]oxy]-4-pyridyl]-N-pyridazin-3-yl-pyrazolo[1,5-a]pyridin-2-amine]
The IC50 of the first is 32-fold lower: 0.00094 µM for the first, 0.0303 µM for the second. The first is the more potent here.

Same assay, conditions: enzyme 6 nM, 6 mM ATP and 400 μM HDAC5tide (each 2× final concentration); 30 minutes pre-incubation, 2 hours; ADP-Glo Max luminescence; read-out: SIK2 high ATP IC50 (μM) (Test Example 2)

`Cc1cc(-c2ccn3nc(NC(=O)C4CC4)cc3c2)c(OC[C@@]23CN[C@@H](CO2)C3)cn1` [Example 248, N-[5-[2-methyl-5-[[(1R,4R)-5-oxa-2-azabicyclo[2.2.1]heptan-4-yl]methoxy]-4-pyridyl]pyrazolo[1,5-a]pyridin-2-yl]cyclopropanecarboxamide] and `Cc1cc(-c2ccn3nc(Nc4ccc(C)nn4)cc3c2)c(OC[C@@]23CN[C@@H](CO2)C3)cn1` [Example 254, 5-[2-methyl-5-[[(1R,4R)-5-oxa-2-azabicyclo[2.2.1]heptan-4-yl]methoxy]-4-pyridyl]-N-(6-methylpyridazin-3-yl)pyrazolo[1,5-a]pyridin-2-amine] are within 1.5-fold of each other in IC50: 0.00712 µM for the first, 0.00637 µM for the second.

Going from `Cc1cc(-c2ccn3nc(Nc4cc(C)nc(C)n4)cc3c2)c(O[C@H]2CC[C@H](S(C)(=O)=O)CC2)cn1` [Example 266, N-(2,6-dimethylpyrimidin-4-yl)-5-[2-methyl-5-(4-methylsulfonylcyclohexoxy)-4-pyridyl]pyrazolo[1,5-a]pyridin-2-amine] to `Cc1cc(-c2ccn3nc(Nc4cc(C)nc(C)n4)cc3c2)c(O[C@H]2CCS(=O)(=O)NC2)cn1` (single isomer, unassigned) [Example 610, (*S)—N-(2,6-dimethylpyrimidin-4-yl)-5-[5-(1,1-dioxothiazinan-4-yl)oxy-2-methyl-4-pyridyl]pyrazolo[1,5-a]pyridin-2-amine], the IC50 rises from 0.00338 µM to 0.0829 µM (25-fold). The first is the more potent here.

Compared with `Cc1cc(-c2ccn3nc(Nc4cc(C)nc(C(=O)NCC(F)(F)F)n4)cc3c2)c(OCC(C)(C)O)cn1` [Example 644, 4-[[5-[5-(2-hydroxy-2-methyl-propoxy)-2-methyl-4-pyridyl]pyrazolo[1,5-a]pyridin-2-yl]amino]-6-methyl-N-(2,2,2-trifluoroethyl)pyrimidine-2-carboxamide], `Cc1cc(-c2ccn3nc(Nc4cc(C)nc(C)n4)cc3c2)c(OCCC(C)(C)C#N)cn1` [Example 315, 4-[[4-[2-[(2,6-dimethylpyrimidin-4-yl)amino]pyrazolo[1,5-a]pyridin-5-yl]-6-methyl-3-pyridyl]oxy]-2,2-dimethyl-butanenitrile] is 18-fold lower in IC50: 0.0734 µM for the first, 0.00406 µM for the second. The second is the more potent here.

Going from `Cc1cc(-c2ccn3nc(Nc4cc(C)nc(C)n4)cc3c2)c(OC[C@@H]2COC[C@H](O)C2)cn1` (single isomer, unassigned) [Example 351, (3*R, 5*S)-5-[[4-[2-[(2,6-dimethylpyrimidin-4-yl)amino]pyrazolo[1,5-a]pyridin-5-yl]-6-methyl-3-pyridyl]oxymethyl]tetrahydropyran-3-ol] to `Cc1cc(-c2ccn3nc(Nc4cc(C)nc(C)n4)cc3c2)c(OC[C@@H](O)C2CC2)cn1` [Example 559, (1S)-1-cyclopropyl-2-[[4-[2-[(2,6-dimethylpyrimidin-4-yl)amino]pyrazolo[1,5-a]pyridin-5-yl]-6-methyl-3-pyridyl]oxy]ethanol], the IC50 rises from 0.00278 µM to 0.00686 µM (2.5-fold).

Compared with `Cc1cc(-c2ccn3nc(Nc4ccc(S(=O)(=O)NC5CC5)cc4)cc3c2)c(O[C@H]2CC[C@H](O)CC2)cn1` [Example 323, N-cyclopropyl-4-[[5-[5-(4-hydroxycyclohexoxy)-2-methyl-4-pyridyl]pyrazolo[1,5-a]pyridin-2-yl]amino]benzenesulfonamide], `Cc1cc(-c2ccn3nc(NC(=O)C4CC4)cc3c2)c(O[C@H]2CC[C@@](O)(c3ccccc3)CC2)cn1` [Example 192, N-(5-(5-(((1r,1r)-4-hydroxy-4-phenylcyclohexyl)oxy)-2-methylpyridin-4-yl)pyrazolo[1,5-a]pyridin-2-yl)cyclopropanecarboxamide] is 2.2-fold higher in IC50: 0.0273 µM for the first, 0.0612 µM for the second. The first is the more potent here.

First: Cc1cc(-c2ccn3nc(NC(=O)C4CC4)cc3c2)c(O[C@H]2CC[C@](C)(O)CC2)cn1 [Example 151, trans-N-(5-(5-(((1r,4r)-4-hydroxy-4-methylcyclohexyl)oxy)-2-methylpyridin-4-yl)pyrazolo[1,5-a]pyridin-2-yl)cyclopropanecarboxamide]
Second: Cc1cc(-c2ccn3nc(Nc4cc(C)nc(C)n4)cc3c2)c(OC[C@H]2CCC3(CCCC3)O2)cn1 (single isomer, unassigned) [Example 231, (*R)—N-(2,6-dimethylpyrimidin-4-yl)-5-[2-methyl-5-(9-oxaspiro[4.4]nonan-8-ylmethoxy)-4-pyridyl]pyrazolo[1,5-a]pyridin-2-amine]
The IC50 of the first is 2.2-fold lower: 0.00378 µM for the first, 0.00839 µM for the second.

First: Cc1cc(Nc2cc3cc(-c4cc(O[C@H](C)C#N)ncc4OCC(C)(C)C#N)ccn3n2)nc(C)n1 (single isomer, unassigned) [Example 680, (*R)-3-[[6-(1-cyanoethoxy)-4-[2-[(2,6-dimethylpyrimidin-4-yl)amino]pyrazolo[1,5-a]pyridin-5-yl]-3-pyridyl]oxy]-2,2-dimethyl-propanenitrile]
Second: Cc1cc(Nc2cc3cc(-c4cc(NCC(F)F)ncc4OCC(C)(C)C#N)ccn3n2)nc(C)n1 [Example 667, 3-[[6-(2,2-difluoroethylamino)-4-[2-[(2,6-dimethylpyrimidin-4-yl)amino]pyrazolo[1,5-a]pyridin-5-yl]-3-pyridyl]oxy]-2,2-dimethyl-propanenitrile]
The IC50 of the first is 2.5-fold higher: 0.0317 µM for the first, 0.0127 µM for the second. The second is the more potent here.

Source: patent US20240158392A1 (Janssen Biotech, Inc., priority 2021, published 2024)
